Data published in patent US8795992B2, “Yeast with increased butanol tolerance involving cell wall integrity pathway” (Butamax Advanced Biofuels LLC, priority 2008, dated 2014).

Assays:
[1] = test system: BY4743; assay: Growth of BY4743 in isobutanol (growth yield, OD600); format: cell-based, Saccharomyces cerevisiae; settings: 1 day (20 hr), 30° C.
[2] = test system: Δslt2/Δslt2 (BY4743 having homozygous deletion of the SLT2 gene); assay: Growth of Δslt2 strain in isobutanol (growth yield, OD600); format: cell-based, Saccharomyces cerevisiae; settings: 1 day (20 hr), 30° C.

## CC(C)CO [isobutanol]
[1]; 0.25 wt % isobutanol
  OD (A600): >1
[1]; 0.50 wt % isobutanol
  OD (A600): >1
[1]; 0.75 wt % isobutanol
  OD (A600): 0.07
[1]; 0.87 wt % isobutanol
  OD (A600): 0.07
[1]; 1.00 wt % isobutanol
  OD (A600): 0.04
[1]; 1.25 wt % isobutanol
  OD (A600): 0.02
[1]; 1.50 wt % isobutanol
  OD (A600): 0.04
[2]; 0.25 wt % isobutanol
  OD (A600): 0.07
[2]; 0.50 wt % isobutanol
  OD (A600): 0.03
[2]; 0.75 wt % isobutanol
  OD (A600): 0.03
[2]; 0.87 wt % isobutanol
  OD (A600): 0.01
[2]; 1.00 wt % isobutanol
  OD (A600): 0.01
[2]; 1.25 wt % isobutanol
  OD (A600): 0.02
[2]; 1.50 wt % isobutanol
  OD (A600): 0.02
